Experimental data as given in paper PMC7190660, “Standardised comparison of limonene-derived monoterpenes identifies structural determinants of anti-inflammatory activity” (Scientific Reports, 2020).
“And” between values parts separate entries of the source, which are not always exact repeats. Equal values may be shown once.

Assays:
Raw 264.7 cells = test: Cytotoxicity by resazurin reduction assay in Raw 264.7 cells; format: cell-based, mouse; conditions: viability not decreased by more than 30% relative to LPS alone (ISO 10993-5), LPS 1 µg/mL 18 h
Description: Various concentrations of the test compounds, in the absence or presence of LPS, were first evaluated for cytotoxicity using the resazurin reduction assay[26]
(§1) Raw 264.7 cells were plated at a density of 3 × 10^5 cells/mL and left to stabilize for up to 24 h.
Resazurin is a redox dye used as an indicator of cellular metabolic activity for various applications, namely cell viability, proliferation and toxicity. The assay is based on the intracellular reduction of the non-fluorescent resazurin to resorufin (a fluorescent and pink coloured compound) by mitochondrial or microsomal enzymes that use NADH or NADPH as electron sources. Since only metabolically active cells can reduce the dye, the increase in fluorescence or absorbance is directly proportional to the number of viable cells[26],[50].
To select non-cytotoxic concentrations of the test compounds, the resazurin solution was added to each well to a final concentration of 50 µM, 90 min before the end of the treatment period indicated in the figure legends. Then, absorbances at 570 nm and 620 nm (reference wavelength) were read in a Biotek Synergy HT plate reader (Biotek, Winooski, VT, USA).

[1] = system: LPS-induced NO production in Raw 264.7 macrophages; test: Primary screening: LPS-induced NO production (nitrite, Griess reaction) in Raw 264.7 macrophages; format: cell-based, mouse; conditions: for % inhibition of LPS-induced NO production: at the highest non-cytotoxic concentration tested, nitrite in supernatants; for Effect on LPS-induced NO production / anti-inflammatory activity (in words): non-cytotoxic concentrations; for IC50: Mus musculus, RAW264.7, Raw 264.7 cell line; for Decrease (inhibition) of LPS-induced NO production: at the highest concentration tested
Description: as §1
This vehicle was used as control. Lipopolysaccharides from Escherichia coli 026:B6 (LPS; Sigma-Aldrich Co.) were dissolved in phosphate buffered saline (PBS). Recombinant human interleukin-1β (IL-1β; Peprotech, Rocky Hill, NJ, USA) was dissolved in PBS containing 0.1% Bovine Serum Albumin.
NO production was measured as the amount of nitrite accumulated in the culture supernatants using the Griess reaction which is based in the reaction of nitrite with sulfanilamide under acidic conditions, yielding a diazonium ion that couples to N-(1-napthtyl)ethylenediamine dihydrochloride to form a water-soluble red-violet azo dye that absorbs at 550 nm[51]. Briefly, equal volumes of culture supernatants and reagents [equal volumes of 1% (w/v) sulphanilamide in 5% (v/v) phosphoric acid and 0.1% (w/v) N-(1-napthtyl)ethylenediamine dihydrochloride] were mixed and incubated for 10 min, at room temperature, in the dark. The concentration of nitrite accumulated in the culture supernatants was calculated by interpolation of the absorbance of each sample, read in Biotek Synergy HT plate reader (Biotek), in a standard curve of sodium nitrite.

NOS2 = test: LPS-induced NOS2 mRNA (qRT-PCR) and protein (western blot) in Raw 264.7; format: cell-based, mouse; conditions: 1 h pre-treatment, Bay 11-7082 5 μM
Description: Macrophage cultures were treated with 1 µg/mL LPS, for 6 h (a) or 18 h (b), following pre-treatment for 1 h with 666 µM of each test compound (a) or with the concentrations indicated in (b). […] Control cells (Ctrl) were treated with the vehicle (0.1% DMSO) in the absence of LPS. Each column represents the mean ± SEM of four independent experiments. The blots shown are representative of, at least, three independent experiments and are cropped for clarity and conciseness.
Total RNA extraction and qRT-PCR were performed as described before[52]. Briefly, total RNA was extracted using the NZYol (NZYTECH, Lisbon, Portugal) and quantified in a NanoDrop ND-1000 spectrophotometer at 260 nm. RNA purity was assessed by analysis of 260/230 and 260/280 absorption ratios. The cDNA was reverse-transcribed using NZY First Strand cDNA Synthesis Kit (NZYTECH), beginning with 2 µg of total RNA. qRT-PCR was performed, in duplicate for each sample, using NZYSpeedy qPCR Green Master Mix (2×) (NZYTECH) on CFX96 Real-Time PCR Detection System (Bio-Rad, Hercules, CA, USA).
Gene expression changes were analysed using the built-in CFX Manager software which enables the analysis of the results by the Pfaffl method, a variation of the ΔΔCT method corrected for gene-specific efficiencies[53]. The results were normalized using Hprt1 as housekeeping gene.
Total cell extracts were prepared and western blot was performed as described before[54]. Briefly, total (25 µg for Raw 264.7 cell line and 20 µg for human chondrocytes) proteins were separated by SDS-PAGE under reducing conditions and electrotransferred onto PVDF membranes. […] Immune complexes were detected with Enhanced ChemiFluorescence reagent (GE Healthcare) in the imaging system Thyphoon FLA 9000 (GE Healthcare). The membranes were reprobed with a mouse monoclonal anti-β-Tubulin I antibody (Sigma-Aldrich Co.), diluted at 1:20000, as a loading control, for 1 h at room temperature. Image analysis was performed with TotalLab TL120 software (Nonlinear Dynamics Ltd).

human chondrocytes = test: IL-1β-induced NOS2 protein, NO production and pro-IL-1β protein in primary human chondrocytes; format: cell-based; conditions: IL-1β 10 ng/mL 24 h, carvone 666 or 1331 µM, Bay 11-7082 5 µM
Description: The cells were treated with 10 ng/mL IL-1β for 24 h (a, b, c and d), following pre-treatment for 1 h with 666 or 1331 µM of (S)-(+)-carvone (4). As a positive control, the cells were similarly treated with 5 μM Bay 11-7082 (b and c). Control cells (Ctrl) were treated with the vehicle (0.1% DMSO) in the absence of IL-1β. Each column represents the mean ± SEM of, at least, three independent experiments. The blots shown are representative of, at least, three independent experiments and are cropped for clarity and conciseness.
Briefly, cartilage shavings underwent sequential digestion with Pronase (Roche, Indianapolis, IN, USA) and collagenase A (Roche, Indianapolis, IN, USA). To avoid chondrocyte dedifferentiation, non-proliferating monolayer cultures were setup by plating 1× 10^6 chondrocytes/mL in HAM: F12 medium containing 3% antibiotics and 5% FBS and allowed to recover for 24 h at 37 °C in a humidified atmosphere with 5% CO2. Prior to any treatments, chondrocytes were serum-starved overnight and thereafter maintained in culture medium without FBS.
This vehicle was used as control. […] Recombinant human interleukin-1β (IL-1β; Peprotech, Rocky Hill, NJ, USA) was dissolved in PBS containing 0.1% Bovine Serum Albumin.
Total cell extracts were prepared and western blot was performed as described before[54]. […] Immune complexes were detected with Enhanced ChemiFluorescence reagent (GE Healthcare) in the imaging system Thyphoon FLA 9000 (GE Healthcare). The membranes were reprobed with a mouse monoclonal anti-β-Tubulin I antibody (Sigma-Aldrich Co.), diluted at 1:20000, as a loading control, for 1 h at room temperature. Image analysis was performed with TotalLab TL120 software (Nonlinear Dynamics Ltd).

CC(C)=C1CC[C@@H](C)CC1=O [(R)-(+)-pulegone (12), (R)-(+)-pulegone]
Highest non-cytotoxic concentration tested (Raw 264.7 cells): 1314 µM and 200 µg/mL
% inhibition of LPS-induced NO production ([1]; Raw 264.7): 7.80 ± 2.98 % ± SEM
Effect on LPS-induced NO production / anti-inflammatory activity (in words) ([1]; Raw 264.7): inactive
Effect on LPS-induced NO production / anti-inflammatory activity (in words) ([1]; Raw 264.7, listed as 12): no effect

CC1=CC[C@H](C(C)(C)O)CC1=O [(S)-8-hydroxycarvotanacetone (20), (S)-5-(2-hydroxypropan-2-yl)-2-methylcyclohex-2-en-1-one]
Highest non-cytotoxic concentration tested (Raw 264.7 cells): 2378 µM and 400 µg/mL
IC50 [1]: 762 µM and 116 µg/mL
Decrease (inhibition) of LPS-induced NO production ([1]; Raw 264.7): greater than 30%
% inhibition of LPS-induced NO production ([1]; Raw 264.7): 78.43 ± 1.60 % ± SEM
Effect on LPS-induced NO production / anti-inflammatory activity (in words) ([1]; Raw 264.7): significant activity

CC(C)[C@@H]1CC[C@@H](C)CC1=O [(−)-menthone (14), (−)-menthone]
Highest non-cytotoxic concentration tested (Raw 264.7 cells): 1297 µM and 200 µg/mL
% inhibition of LPS-induced NO production ([1]; Raw 264.7): −9.88 ± 2.85 % ± SEM
Effect on LPS-induced NO production / anti-inflammatory activity (in words) ([1]; Raw 264.7): no effect

C=C(C)[C@@H]1CC[C@@H](C)C[C@H]1O [(−)-isopulegol (11), (−)-isopulegol]
Highest non-cytotoxic concentration tested (Raw 264.7 cells): 2593 µM and 400 µg/mL
% inhibition of LPS-induced NO production ([1]; Raw 264.7): −12.63 ± 1.30 % ± SEM
Effect on LPS-induced NO production / anti-inflammatory activity (in words) ([1]; Raw 264.7): inactive
Effect on LPS-induced NO production / anti-inflammatory activity (in words) ([1]; Raw 264.7, listed as 11): no effect

C=C(C)[C@@H]1CC[C@](C)(O)[C@@H](O)C1 [(1 S,2 S,4 R)-(+)-limonene-1,2-diol (3), (1 S,2 S,4 R)-(+)-limonene-1,2-diol]
Highest non-cytotoxic concentration tested (Raw 264.7 cells): 2349 µM and 400 µg/mL
Decrease (inhibition) of LPS-induced NO production ([1]; Raw 264.7): less than 20%
% inhibition of LPS-induced NO production ([1]; Raw 264.7): 13.90 ± 2.03 % ± SEM
Effect on LPS-induced NO production / anti-inflammatory activity (in words) ([1]; Raw 264.7): inactive

CC(C)[C@@H]1CC[C@@H](C)C[C@H]1O [(−)-menthol (15), (−)-menthol]
Highest non-cytotoxic concentration tested (Raw 264.7 cells): 2560 µM and 400 µg/mL
% inhibition of LPS-induced NO production ([1]; Raw 264.7): −6.90 ± 1.24 % ± SEM
Effect on LPS-induced NO production / anti-inflammatory activity (in words) ([1]; Raw 264.7): no effect

C=C(C)[C@@H]1CC=C(C)C(O)C1 (single isomer, unassigned; (-)) [(−)-carveol (6), (−)-carveol]
Highest non-cytotoxic concentration tested (Raw 264.7 cells): 2628 µM and 400 µg/mL
IC50 [1]: 2 mM and 304 µg/mL
Decrease (inhibition) of LPS-induced NO production ([1]; Raw 264.7): greater than 30%
% inhibition of LPS-induced NO production ([1]; Raw 264.7): 52.30 ± 5.54 % ± SEM

C=C(C)[C@H]1CC[C@H](C)[C@@H](O)C1 [(+)-dihydrocarveol (8), (+)-dihydrocarveol]
Highest non-cytotoxic concentration tested (Raw 264.7 cells): 1297 µM and 200 µg/mL
IC50 [1]: 532 µM and 82.1 µg/mL
Decrease (inhibition) of LPS-induced NO production ([1]; Raw 264.7): greater than 30%
% inhibition of LPS-induced NO production ([1]; Raw 264.7): 71.03 ± 2.28 % ± SEM

CC1=CC[C@@H](C(C)(C)O)CC1=O [(R)-8-hydroxycarvotanacetone (21), (R)-5-(2-hydroxypropan-2-yl)-2-methylcyclohex-2-en-1-one]
Highest non-cytotoxic concentration tested (Raw 264.7 cells): 2378 µM and 400 µg/mL
IC50 [1]: 842 µM and 142 µg/mL
Decrease (inhibition) of LPS-induced NO production ([1]; Raw 264.7): greater than 30%
% inhibition of LPS-induced NO production ([1]; Raw 264.7): 76.25 ± 1.97 % ± SEM
Effect on LPS-induced NO production / anti-inflammatory activity (in words) ([1]; Raw 264.7): significant activity

Cc1ccc(S(=O)(=O)/C=C/C#N)cc1 [Bay 11-7082, reference compound]
LPS-induced NOS2 mRNA levels (NOS2; LPS 1 µg/mL 6 h, test compounds 666 µM): decreased
LPS-induced NOS2 protein levels (NOS2; LPS 1 µg/mL 18 h): decreased
IL-1β-induced NO production (human chondrocytes): significantly decreased
IL-1β-induced NOS2 protein levels (human chondrocytes): significantly decreased
NO production relative to cells treated with LPS alone ([1]; pre-treatment with 5 μM, Raw 264.7): 48.1 ± 5.2%

Cc1ccc(C(C)C)cc1 [p-cymene (17), p-cymene]
Highest non-cytotoxic concentration tested (Raw 264.7 cells): 37 µM and 5 µg/mL
Decrease (inhibition) of LPS-induced NO production ([1]; Raw 264.7): less than 20%
% inhibition of LPS-induced NO production ([1]; Raw 264.7): 8.50 ± 5.53 % ± SEM
Effect on LPS-induced NO production / anti-inflammatory activity (in words) ([1]; Raw 264.7): showed no activity

CC(C)=C1CC[C@H](C)CC1=O [(S)-(−)-pulegone (13), (S)-(−)-pulegone]
Highest non-cytotoxic concentration tested (Raw 264.7 cells): 2628 µM and 400 µg/mL
% inhibition of LPS-induced NO production ([1]; Raw 264.7): 35.60 ± 4.86 % ± SEM
Effect on LPS-induced NO production / anti-inflammatory activity (in words) ([1]; Raw 264.7): weak activity

Cc1ccc(C(C)C)c(O)c1 [thymol (19), thymol]
Highest non-cytotoxic concentration tested (Raw 264.7 cells): 83 µM and 12.5 µg/mL
Decrease (inhibition) of LPS-induced NO production ([1]; Raw 264.7): less than 20%
% inhibition of LPS-induced NO production ([1]; Raw 264.7): 8.93 ± 1.91 % ± SEM
Effect on LPS-induced NO production / anti-inflammatory activity (in words) ([1]; Raw 264.7): showed no activity

C=C(C)[C@@H]1CCC(C)C(=O)C1 (single isomer, unassigned; (+)) [(+)-dihydrocarvone (7), (+)-dihydrocarvone]
Highest non-cytotoxic concentration tested (Raw 264.7 cells): 2628 µM and 400 µg/mL
IC50 [1]: 1.47 mM and 224 µg/mL
Decrease (inhibition) of LPS-induced NO production ([1]; Raw 264.7): greater than 30%
% inhibition of LPS-induced NO production ([1]; Raw 264.7): 73.57 ± 2.81 % ± SEM

C=C(C)[C@H]1CC[C@H](C)C[C@@H]1O [(+)-isopulegol (10), (+)-isopulegol]
Highest non-cytotoxic concentration tested (Raw 264.7 cells): 2593 µM and 400 µg/mL
% inhibition of LPS-induced NO production ([1]; Raw 264.7): −18.47 ± 5.65 % ± SEM
Effect on LPS-induced NO production / anti-inflammatory activity (in words) ([1]; Raw 264.7): inactive
Effect on LPS-induced NO production / anti-inflammatory activity (in words) ([1]; Raw 264.7, listed as 10): no effect

C=C(C)[C@@H]1CC[C@@H](C)[C@H](O)C1 [(−)-dihydrocarveol (9), (−)-dihydrocarveol]
Highest non-cytotoxic concentration tested (Raw 264.7 cells): 2593 µM and 400 µg/mL
IC50 [1]: 2.14 mM and 330 µg/mL
Decrease (inhibition) of LPS-induced NO production ([1]; Raw 264.7): greater than 30%
% inhibition of LPS-induced NO production ([1]; Raw 264.7): 62.03 ± 8.62 % ± SEM

C=C(C)[C@H]1CC=C(C)CC1 [(R)-(+)-limonene (2), (R)-(+)-limonene]
% inhibition of LPS-induced NO production ([1]; Raw 264.7): −1.80 ± 0.55 % ± SEM
Effect on LPS-induced NO production / anti-inflammatory activity (in words) ([1]; Raw 264.7): inactive
Effect on LPS-induced NO production / anti-inflammatory activity (in words) ([1]; Raw 264.7, listed as 2): no effect

Cc1ccc(C(C)C)cc1O [carvacrol (18), carvacrol]
Highest non-cytotoxic concentration tested (Raw 264.7 cells): 33 µM and 5 µg/mL
Decrease (inhibition) of LPS-induced NO production ([1]; Raw 264.7): less than 20%
% inhibition of LPS-induced NO production ([1]; Raw 264.7): 10.78 ± 1.34 % ± SEM
Effect on LPS-induced NO production / anti-inflammatory activity (in words) ([1]; Raw 264.7): almost no activity

C=C(C)[C@@H]1CC=C(C)CC1 [(S)-(−)-limonene (1), (S)-(−)-limonene]
% inhibition of LPS-induced NO production ([1]; Raw 264.7): 11.08 ± 4.65 % ± SEM
Effect on LPS-induced NO production / anti-inflammatory activity (in words) ([1]; Raw 264.7): inactive
Effect on LPS-induced NO production / anti-inflammatory activity (in words) ([1]; Raw 264.7, listed as 1): no effect
